Assay results published in patent US20030130174A1, “Glycosulfopeptide inhibitors of leukocyte rolling and methods of use thereof” (priority 2001, published 2003).
Where a SMILES comes first, the peptide text is derived from it. [ ]: non-standard residue; d: D form. The star is where a group is joined. X1 = CC(=O)N[C@@H]1[C@@H](O[C@@H]2O[C@H](CO)[C@H](O)[C@H](O)[C@H]2O)[C@@H](O)[C@@H](CO[C@@H]2O[C@H](CO)[C@@H](O[C@@H]3O[C@H](CO)[C@H](O)[C@H](O[C@]4(C(=O)O)C[C@H](O)[C@@H](NC(C)=O)[C@H]([C@H](O)[C@H](O)CO)O4)[C@H]3O)[C@H](O[C@@H]3O[C@@H](C)[C@@H](O)[C@@H](O)[C@@H]3O)[C@H]2NC(C)=O)O[C@@H]1*; sY = N[C@@H](Cc1ccc(OS(=O)(=O)O)cc1)C(=O)O

Details: mouse, in vivo
Description: Microscopic observations were made using an upright microscope (NIKON ECLIPSE E600-FN, Nikon UK Ltd, UK) equipped with a water immersion objective (40×/0.80 W). Images were recorded using a CCD camera (DAGE MTI DC-330, DAGE MTI Inc, Michigan City, Ind.) onto sVHS video-cassettes. Venules (20-40 μM diameter) were selected and typically observed for the entire experimental period. Centre-line blood flow velocity (VCL) in was measured in vessels of interest using a commercially available velocimeter (CIRCUSOFT, Hockessin, Del.). Vessels with VCL between 1 and 5 mm/s were selected for these studies.
Control leukocyte rolling was recorded exactly 30 min after exposure of the cremaster muscle for intravital microscopy since leukocyte rolling at this time is almost exclusively P-selectin-dependent . GSPs were injected at 31 min and their effects monitored for 10 min. […] Blood flow velocities and circulating leukocyte concentrations were measured at key times (before and after treatments) during experiments.

Systemic leukocyte counts following treatment: increased slightly
Structure (SMILES): CC(=O)N[C@H]1[C@H](OC[C@H]2O[C@H](O[C@H](C)[C@H](NC(=O)[C@H](CCC(=O)O)NC(=O)[C@@H]3CCCN3C(=O)[C@H](CC(C)C)NC(=O)[C@H](Cc3ccccc3)NC(=O)[C@H](CC(=O)O)NC(=O)[C@H](Cc3ccc(OS(=O)(=O)O)cc3)NC(=O)[C@H](CC(=O)O)NC(=O)[C@H](CC(C)C)NC(=O)[C@H](Cc3ccc(OS(=O)(=O)O)cc3)NC(=O)[C@H](CCC(=O)O)NC(=O)[C@H](Cc3ccc(OS(=O)(=O)O)cc3)NC(=O)[C@@H](N)CCC(=O)O)C(=O)N[C@@H](CCC(=O)O)C(=O)N3CCC[C@H]3C(=O)N3CCC[C@H]3C(=O)N[C@@H](CCC(=O)O)C(=O)N[C@@H](CS)C(=O)O)[C@H](NC(C)=O)[C@@H](O[C@@H]3O[C@H](CO)[C@H](O)[C@H](O)[C@H]3O)[C@H]2O)O[C@H](CO)[C@@H](O[C@@H]2O[C@H](CO)[C@H](O)[C@H](O[C@]3(C(=O)O)C[C@H](O)[C@@H](NC(C)=O)[C@H]([C@H](O)[C@H](O)CO)O3)[C@H]2O)[C@@H]1O[C@@H]1O[C@@H](C)[C@@H](O)[C@@H](O)[C@@H]1O [2-GSP-6] (H-E[sY]E[sY]LD[sY]DFLPET(X1)EPPEC-OH)
